The values that follow come from patent publication US8716228B2, “GPR54 agonists or antagonists for treatment of diseases presenting behavioral abnormalities” (YEDA Research and Development Co. Ltd., priority 2009, dated 2014).

Counter-ions that a name gives are not always drawn. Square brackets hold non-standard residues; d marks the D form. Peptide text beside a SMILES is read from it. dPhe(4-Cl) = N[C@H](Cc1ccc(Cl)cc1)C(=O)O; d2Nal = N[C@H](Cc1ccc2ccccc2c1)C(=O)O; dCit = NC(=O)NCCC[C@@H](N)C(=O)O; d3Pal = N[C@H](Cc1cccnc1)C(=O)O

Assay [1] deals with naive C57B1/6 mice. To be noted: neurotensin receptor antagonist alone (Binder et al., 2001); cited from earlier work.
The subject of a further assay is C57B1/6 mice. The assay can be described thus: PPI in MK-801 pharmacological model of schizophrenia. The format is in vivo, mouse. To be noted: acute MK-801 0.1 mg/kg i.p., PPI 15 min later, vs naive mice. The method, then:
(§1) Prepulse Inhibition (PPI). PPI testing was performed within startle chambers purchased from Med Associates Inc (Med Associates, St. Albans, Vt., USA). PPI was analyzed as described previously (Kipnis et al., 2004). Briefly, during a period of acclimation, a 65-dB background noise was applied for 5-min, and continued throughout the test session. All sessions for testing of PPI consisted of startle trials (pulse alone, 40-ms, 120-dB), prepulse trials (prepulse 20-ms, 69, 73, 78, or 81 dB followed by a (100-ms delay) pulse), and no-stimulus trials. All sessions were presented in pseudo-random order. The average time between trials was 15 s (range 12-30 s). PPI was calculated as: % PPI=100−{[(startle response for prepulse+pulse)/(startle response for pulse-alone)]×100}. In all the experiments, there were no significant differences between groups in trials of startle reactivity to pulse alone, and in no-stimulation trials. Data from no-stimulation trials are not included in the results because the values obtained were negligible relative to values from trials containing startle stimuli. Reduced PPI is associated with schizophrenia-related behavior. […]
To further establish the antipsychotic effect of Kp-10, we evaluated its ability to overcome psychotic symptoms induced by the psycho-mimetic agent, MK-801 (N-methyl-D-aspartate (NMDA) antagonist), which induces neurotransmitter imbalance. […]

Assay [2] deals with naive C57B1/6 mice. Description: PPI in naive C57B1/6 mice. The format is in vivo, mouse. To be noted: naive animals, GnRH receptor antagonist alone.
Experimental: Prepulse Inhibition (PPI). PPI testing was performed within startle chambers purchased from Med Associates Inc (Med Associates, St. Albans, Vt., USA). […] Briefly, during a period of acclimation, a 65-dB background noise was applied for 5-min, and continued throughout the test session. All sessions for testing of PPI consisted of startle trials (pulse alone, 40-ms, 120-dB), prepulse trials (prepulse 20-ms, 69, 73, 78, or 81 dB followed by a (100-ms delay) pulse), and no-stimulus trials. All sessions were presented in pseudo-random order. The average time between trials was 15 s (range 12-30 s). PPI was calculated as: % PPI=100−{[(startle response for prepulse+pulse)/(startle response for pulse-alone)]×100}. […] Data from no-stimulation trials are not included in the results because the values obtained were negligible relative to values from trials containing startle stimuli.
Neurotensin receptor antagonist SR142948 (TOCRIS COOKSON LTD) was used at 100 μg/kg 60 min before the PPI analysis.
GnRH receptor antagonist Cetrorelix Acetate (Cetrotide™, Anaspec Inc. Fremont, Calif.). Control mice were administered the same volume of PBS.
To examine whether Kp-10 can elevate PPI in naïve mice in a dose dependent manner, we analyzed PPI in C57B1/6 mice that were injected i.p with 100 μl of 1/10/100 μM Kp-10 (SEQ ID NO:3).
Assay [3] deals with offspring of poly I:C treated dams. Description: PPI in offspring of poly I:C treated dams (mouse model for schizophrenia). It is filed as in vivo. To be noted: pregnant C57B1/6 mice 4 mg/kg poly I:C, vs saline. As for the experimental part:
(§2) Poly I:C administration. Rats or mice were bred, and the first day after copulation was defined as day 1 of pregnancy. On gestation day 15, pregnant animals were injected intravenously with 4.0 mg/kg poly I:C (Sigma-Aldrich, Israel) dissolved in saline, or an equivalent volume of saline as a control. Both rats and mice received the same protocol of poly I:C administration.
Prepulse Inhibition (PPI). PPI testing was performed within startle chambers purchased from Med Associates Inc (Med Associates, St. Albans, Vt., USA). PPI was analyzed as described previously (Kipnis et al., 2004). Briefly, during a period of acclimation, a 65-dB background noise was applied for 5-min, and continued throughout the test session. All sessions for testing of PPI consisted of startle trials (pulse alone, 40-ms, 120-dB), prepulse trials (prepulse 20-ms, 69, 73, 78, or 81 dB followed by a (100-ms delay) pulse), and no-stimulus trials. All sessions were presented in pseudo-random order. The average time between trials was 15 s (range 12-30 s). PPI was calculated as: % PPI=100−{[(startle response for prepulse+pulse)/(startle response for pulse-alone)]×100}. In all the experiments, there were no significant differences between groups in trials of startle reactivity to pulse alone, and in no-stimulation trials. Data from no-stimulation trials are not included in the results because the values obtained were negligible relative to values from trials containing startle stimuli. Reduced PPI is associated with schizophrenia-related behavior. The same protocol was used in mice and rats (FIG. 1A).
Kisspeptin treatment. Mice were injected i.p with 100 μl of 1/10/100 μM Kp-10 peptide (SEQ ID NO:3) (synthesized at the Weizmann Institute of Science, or Sigma-Aldrich, Israel) dissolved in PBS, 30 minutes before the PPI analysis.
The ability of a normal lymphocyte population to reverse abnormal PPI behavior in immune deficient mice, encouraged us to test whether immune cells derived from the offspring of poly I:C treated dams would reverse the abnormal behavior of SCID mice in the PPI test. […]

The next assay concerns BDNF. The assay can be described thus: qPCR of BDNF transcripts in hippocampus. It is filed as in vivo, mouse. To be noted: mRNA, offspring of poly I:C treated dams treated at 8 weeks with Kp-10 or PBS. As for the experimental part: RNA purification, cDNA synthesis, reverse transcription PCR, and real-time quantitative PCR analysis. For RNA expression analysis, cells from whole hippocampi were extracted with TRI Reagent (MRC, Cincinnati, Ohio), and total cellular RNA was purified from the lysates using the RNeasy kit (Qiagen, Hilden, Germany). RNA (1 μg) was converted to cDNA using SuperScript II (Promega, Madison, Wis.). The amplification cycle was 95° C. for 5 s, 60° C. for 20 s, and 72° C. for 15 s.
The following primers were used: […]
To understand what is the mechanism behind the prophylactic treatment of Kp-10 we examined the expression of total brain-derived neurotrophic factor (BDNF) and its exon transcripts 1-4 according to Zajac et al. (2010). […] Recently, association between a BDNF variant and childhood-onset mood disorder was established (Strauss et al., 2005). Therefore, we studied mRNA expression of a few BDNF transcripts in the hippocampus of offspring of PBS treated dams (n=5) compared to offspring of poly I:C treated dams, which were treated at 8 weeks with either Kp-10 (n=6) or PBS (n=6) (Table 3). […] Treatment with Kp-10 at 8 weeks of age induced an increase in the expression of BDNF1 transcript to the normal level (Table 3(ii)). […] In addition, no significant difference was found between the groups in the expression of BDNF transcripts 3 and 4 (Table 3(iv and v)). […] The involvement of BDNF in schizophrenia and its effect on PPI levels are still a debate. Our observations of changes in expression of selective forms of BDNF might explain this apparent dichotomy.

A further assay relates to lymphocytes. The assay can be described thus: Lymphocyte proliferation assay after MBP68-86 vaccination. To be noted: offspring after prenatal poly I:C treatment. The format is cell-based, Lewis rats.
The subject of assay [4] is Lewis rats. The assay can be described thus: Experimental autoimmune encephalomyelitis (EAE). To be noted: female offspring after prenatal poly I:C treatment, MBP68-86 immunization. It is filed as in vivo.
Assay [5] relates to Lewis rats. The assay can be described thus: PPI in offspring of poly I:C treated Lewis rats. To be noted: pregnant Lewis rats 4 mg/kg poly I:C, vs progeny of saline-treated animals. It is filed as in vivo. As for the experimental part:
as §2
as §1, with “trials.” for “trials. Data from no-stimulation trials are not included in the results because the values obtained were negligible relative to values from trials containing startle stimuli. Reduced PPI is associated with schizophrenia-related behavior.”

A further assay concerns KiSS-1. The assay can be described thus: qPCR of KiSS-1 mRNA in hippocampus. The format is in vivo, mouse. To be noted: adult poly I:C affected mice vs age-matched controls. (In general: Quantitative PCR measures a nucleic acid by following its amplification.)
Assay [6] deals with poly I:C rat model for schizophrenia. To be noted: prophylactic treatment in peri-adolescence; cited from earlier work.

As for `COc1cccc(OC)c1-c1cc(C(=O)NC2(C(=O)O)C3CC4CC(C3)CC2C4)nn1-c1ccc(C(=O)N(C)CCCN(C)C)cc1C(C)C` (centres unmarked) [NTA], in the assay on naive C57B1/6 mice [1], the PPI levels entry is on record as “does not affect PPI levels”.
Turning to `C[C@]12N[C@H](Cc3ccccc31)c1ccccc12` [MK-801, [+]-5-methyl-10,11-dihydro-5H-dibenzo-[a,d]-cyclohepten-5,10-imine hydrogen maleate, reference compound], in the assay with C57B1/6 mice, the PPI response entry is “significantly reduced PPI response”.
Turning to `CC(=O)N[C@H](Cc1ccc2ccccc2c1)C(=O)N[C@H](Cc1ccc(Cl)cc1)C(=O)N[C@H](Cc1cccnc1)C(=O)N[C@@H](CO)C(=O)N[C@@H](Cc1ccc(O)cc1)C(=O)N[C@H](CCCNC(N)=O)C(=O)N[C@@H](CC(C)C)C(=O)N[C@@H](CCCNC(=N)N)C(=O)N1CCC[C@H]1C(=O)N[C@H](C)C(N)=O` [Cetrotide™, Cetrorelix Acetate, reference compound] (Ac-[d2Nal][dPhe(4-Cl)][d3Pal]SY[dCit]LRP[dA]-NH2), the PPI result in the assay with naive C57B1/6 mice [2] was “did not affect PPI”.
Consider “polyriboinosinic-polyribocytidylic acid [poly I:C]”, for which the “PPI in adult offspring” value in assay [3] is “reduced PPI”. In the assay on BDNF, the “Expression of BDNF1 transcript” value is 1.2 ± 0.3, the “Expression of BDNF2 transcript” value is 5.7 ± 0.1, the “Expression of BDNF3 transcript” value is 6.2 ± 0.9 and the “Expression of BDNF4 transcript” value worked out at 7.4 ± 1. In addition, in the assay on BDNF, the “Expression of BDNF transcript (total BDNF)” value came out at 1.7 ± 0.6. For the same compound, the “Lymphocyte proliferation (PI ± SD)” value with lymphocytes (antigen Con-A) stood at 126 ± 67. The “Lymphocyte proliferation (PI ± SD)” value in the assay with lymphocytes (antigen MBP68-86) worked out at 1.0 ± 0.11. The “Lymphocyte proliferation (PI ± SD)” value with lymphocytes (antigen Ova) turned out to be 1.2 ± 0.09. Moreover, in the assay on Lewis rats [4], the “Duration of EAE (day ± SEM)” value amounted to 5.08 ± 0.3 days and the “Onset of EAE (day ± SEM)” value came out at 11.17 ± 0.2 days. The “PPI in adult offspring” value in the assay with Lewis rats [5] is recorded as “reduction in PPI”. Moreover, the “KiSS-1 mRNA levels in hippocampus” value in the assay on KiSS-1 is “reduction in KiSS-1 mRNA levels”.
Turning to `Cc1nc2n(c(=O)c1CCN1CCC(c3noc4cc(F)ccc34)CC1)CCCC2` [Risperidone], the “onset of psychotic symptoms and abnormal brain development” value in assay [6] was “prevented the onset psychotic symptoms and abnormal brain development”.
